Values quoted from earlier work as cited in US9913492B1, “Yolatile liquid inhaler and method of manufacture” (priority 2010, dated 2018).

What was measured:
[1] = at 25 degrees C.

Compound	lethal dosage (adult human beings; adult human beings) [mg]	vapor pressure [1] [MBR]	LD50 (rats) [mg/kg]	LD50 (mice) [mg/kg]	lethal dose (adult human beings; comparison with nicotine) [mg]
CN1CCCC1c1cccnc1 (centres unmarked) [nicotine]	40 to 60	0.53	50	3	–
COC(=O)[C@H]1[C@@H](OC(=O)c2ccccc2)C[C@@H]2CC[C@H]1N2C [cocaine]	–	–	–	–	1000
